For 9 compounds, GI50 and TGI results are on record in PubChem BioAssay (NCI).

Test systems include CCRF-CEM leukemia; HCT-116 colon; HS 578T breast; K-562 leukemia; NCI-H226 lung; NCI-H522 lung; OVCAR-5 ovarian; SK-MEL-28 melanoma; T-47D breast; TK-10 renal.
Common to all, as to experiment: NCI anticancer screen, dose series, 48 h

Several values for one entry are separate records, joined by “and”; a condition that tells them apart may be missing. Equal values may be shown once.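 Interpolation was linear, between the two tested concentrations surrounding the appropriate level; five concentrations were tested over 48 hours in 96-well plates. GI50: concentration for 50% inhibition of growth. TGI: total growth inhibition.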

On to `O=C(NC1CC1)c1ccc(-c2nc3ccc4[nH]ncc4c3c3c2CCCC3)cc1`, for which the GI50 was 2.06 µM in the assay with CCRF-CEM leukemia; 1.34 µM in the assay with HCT-116 colon; 1.06 µM in the assay on HS 578T breast; 1.95 µM with K-562 leukemia; 3.41 µM with NCI-H226 lung; 1.21 µM in the assay on NCI-H522 lung. Besides, the GI50 with OVCAR-5 ovarian was 7.3 µM; in the assay on SK-MEL-28 melanoma, 2.3 µM; with T-47D breast, 1.62 µM; in the assay with TK-10 renal, 0.991 µM. Further, the TGI with CCRF-CEM leukemia was over 50 µM; in the assay with HCT-116 colon, 14 µM; in the assay on HS 578T breast it was 3.37 µM; with K-562 leukemia, over 50 µM; in the assay on NCI-H226 lung, 47.6 µM; with NCI-H522 lung, 9.54 µM. For the same compound, the TGI with OVCAR-5 ovarian stood at 47.6 µM; in the assay with SK-MEL-28 melanoma it was 12.1 µM; in the assay with T-47D breast, 15.4 µM; in the assay on TK-10 renal it was 25.6 µM.
Take `c1ccc(C(=NNc2nc3ccccc3o2)c2ccccn2)nc1`: the GI50 was 0.033 µM in the assay with CCRF-CEM leukemia; 0.0296 µM in the assay on HCT-116 colon; 1.01 µM in the assay with HS 578T breast; 0.0628 µM in the assay with NCI-H226 lung; 0.0339 µM in the assay on NCI-H522 lung; 0.0847 µM in the assay with OVCAR-5 ovarian. The GI50 in the assay with SK-MEL-28 melanoma was 0.124 µM; in the assay on TK-10 renal, 0.0673 µM. The TGI in the assay on HS 578T breast is > 81.9 µM and 55.5 µM; in the assay on K-562 leukemia, > 100 µM and 22.9 µM; in the assay on SK-MEL-28 melanoma, 48.6 µM; in the assay with T-47D breast, 12.4 µM and 25.8 µM; in the assay on TK-10 renal, > 100 µM and 17.5 µM.
As to `O=C1C(=Cc2ccco2)C(=O)C2CCCCC12` (configuration not stated), the TGI in the assay with CCRF-CEM leukemia is over 100 µM; in the assay on HCT-116 colon it was over 100 µM; with HS 578T breast, over 100 µM; in the assay on K-562 leukemia, 73.2 µM; in the assay on NCI-H226 lung it was over 100 µM; in the assay with NCI-H522 lung, over 100 µM. In addition, the TGI in the assay on OVCAR-5 ovarian, in the assay with SK-MEL-28 melanoma, with T-47D breast and with TK-10 renal was over 100 µM in each case.
As to `COc1ccc(CNc2nc3cc(N)cc(N)c3nc2-c2ccccc2)cc1OC`, the GI50 was 3.48 µM in the assay with CCRF-CEM leukemia; 15.4 µM with HCT-116 colon; 23.4 µM in the assay with HS 578T breast; 10.9 µM in the assay with K-562 leukemia; 15.4 µM with NCI-H226 lung; 8.16 µM with NCI-H522 lung. The GI50 is 20.6 µM with OVCAR-5 ovarian, 15 µM in the assay on SK-MEL-28 melanoma, 4.16 µM in the assay with T-47D breast and 16.8 µM in the assay on TK-10 renal. Moreover, the TGI was 71.5 µM with CCRF-CEM leukemia; 31.5 µM with HCT-116 colon; over 68.6 µM in the assay with HS 578T breast; over 100 µM with K-562 leukemia; 30.8 µM with NCI-H226 lung; 24.6 µM with NCI-H522 lung. Also, the TGI in the assay with OVCAR-5 ovarian was 38.9 µM; with SK-MEL-28 melanoma, 33.8 µM; in the assay with T-47D breast, over 27.5 µM; in the assay with TK-10 renal it was 32.8 µM.
Regarding `CC(=O)Nc1nc(SCc2ccccc2)c2ncn(C(C)=O)c2n1`, the GI50 in the assay on CCRF-CEM leukemia is over 100 µM; with HCT-116 colon, over 100 µM; with HS 578T breast, 47.3 µM; in the assay on K-562 leukemia it was over 100 µM; with NCI-H226 lung, 45.4 µM; with NCI-H522 lung, 72.6 µM. Further, the GI50 is over 100 µM in the assay on OVCAR-5 ovarian, over 100 µM in the assay with SK-MEL-28 melanoma, 50.7 µM in the assay on T-47D breast and 23.4 µM in the assay on TK-10 renal. In addition, the TGI with CCRF-CEM leukemia, in the assay with HCT-116 colon, with HS 578T breast, with K-562 leukemia, in the assay on NCI-H226 lung and in the assay on NCI-H522 lung was over 100 µM throughout. The TGI with OVCAR-5 ovarian was over 100 µM; with SK-MEL-28 melanoma it was over 100 µM; in the assay with T-47D breast, over 100 µM; in the assay on TK-10 renal, 78.3 µM.
As to `FC(F)(F)c1cccc(COCCN2CCN(Cc3cccc(C(F)(F)F)c3)CC2)c1`, the TGI was 46.6 µM in the assay with CCRF-CEM leukemia; 34.9 µM with HCT-116 colon; 38.2 µM with HS 578T breast; over 100 µM in the assay on K-562 leukemia; 35.8 µM in the assay with NCI-H226 lung; 26.5 µM with NCI-H522 lung. The TGI worked out at 31.6 µM in the assay with OVCAR-5 ovarian, 34.6 µM with SK-MEL-28 melanoma, 39.1 µM in the assay on T-47D breast and 27.4 µM in the assay on TK-10 renal.
As to `S=c1nc(Oc2ccc(Cl)c(Cl)c2)[nH]c(=S)[nH]1`, the TGI in the assay on CCRF-CEM leukemia was over 87.5 µM; in the assay on HCT-116 colon it was over 60.9 µM; with HS 578T breast it was over 100 µM; with K-562 leukemia it was over 31.6 µM; in the assay on NCI-H226 lung, over 77.6 µM; with NCI-H522 lung, 38.2 µM. Moreover, the TGI in the assay on OVCAR-5 ovarian was over 100 µM; in the assay on SK-MEL-28 melanoma, over 92.5 µM; with T-47D breast it was 59.6 µM; in the assay with TK-10 renal, over 100 µM.
As for `CCN1C(=O)N(CC)C2C1NN=c1s/c(=C3\C(=O)N(CC(C)C)c4ccccc43)c(=O)n12` (configuration not stated), the GI50 with CCRF-CEM leukemia is 0.464 µM; in the assay on HCT-116 colon, 0.441 µM; with HS 578T breast it was 0.665 µM; with K-562 leukemia, 0.429 µM; in the assay with NCI-H226 lung it was 2.39 µM; in the assay with NCI-H522 lung, 0.4 µM. For the same compound, the GI50 in the assay with OVCAR-5 ovarian was 2.27 µM; in the assay on SK-MEL-28 melanoma it was 3.28 µM; in the assay on T-47D breast, 0.311 µM; with TK-10 renal, 8.08 µM. The TGI was over 100 µM in the assay with CCRF-CEM leukemia; over 100 µM in the assay on HCT-116 colon; 23.9 µM in the assay on HS 578T breast; over 100 µM with K-562 leukemia; over 100 µM in the assay on NCI-H226 lung; over 100 µM in the assay with OVCAR-5 ovarian. The figures for the TGI with SK-MEL-28 melanoma, with T-47D breast and in the assay with TK-10 renal were over 100 µM, over 100 µM and over 56.6 µM, respectively.
In the case of `N=C1c2nc3n(c2C(=O)c2nc4n(c21)CCCC4)CCCC3`, the GI50 in the assay with CCRF-CEM leukemia was 20.5 µM; in the assay on HCT-116 colon, 19.8 µM; with HS 578T breast, 2.18 µM; in the assay with K-562 leukemia it was 19.8 µM; in the assay on NCI-H226 lung, 1.08 µM; with NCI-H522 lung, 4.17 µM. Further, the GI50 in the assay on OVCAR-5 ovarian was 2.28 µM; in the assay on SK-MEL-28 melanoma, 1.84 µM; in the assay on T-47D breast it was 11.7 µM; in the assay with TK-10 renal, 52.6 µM. The TGI is over 100 µM in the assay on CCRF-CEM leukemia; over 100 µM with HCT-116 colon; 6.68 µM in the assay on HS 578T breast; over 100 µM in the assay on K-562 leukemia; 3.38 µM in the assay with NCI-H226 lung; 26.1 µM with NCI-H522 lung. In addition, the TGI in the assay with OVCAR-5 ovarian is 4.89 µM; in the assay on SK-MEL-28 melanoma it was 3.7 µM; in the assay on T-47D breast it was over 100 µM; with TK-10 renal, over 100 µM.
